Measured values taken from US5776929A, “Benzodiazepine derivative” (Shionogi & Co., Ltd., priority 1993, dated 1998).
Where two headings read alike, the source gives them in different places.

Tests used:
gastrin receptor = molecular target: T1, gastrin receptor (Cavia porcellus, UniProt H0VZC5); assay: Gastrin receptor antagonism, displacement of 125I-labeled gastrin, gastric (fundic) gland cells; type: binding, guinea pig (male Hartley)
T1 construct: stomach was extracted from each animal immediately, from which gastric glands were prepared; from tissue; host or cells: gastric (fundic) glands of male Hartley guinea pigs
T1 sequence (H0VZC5 1-426): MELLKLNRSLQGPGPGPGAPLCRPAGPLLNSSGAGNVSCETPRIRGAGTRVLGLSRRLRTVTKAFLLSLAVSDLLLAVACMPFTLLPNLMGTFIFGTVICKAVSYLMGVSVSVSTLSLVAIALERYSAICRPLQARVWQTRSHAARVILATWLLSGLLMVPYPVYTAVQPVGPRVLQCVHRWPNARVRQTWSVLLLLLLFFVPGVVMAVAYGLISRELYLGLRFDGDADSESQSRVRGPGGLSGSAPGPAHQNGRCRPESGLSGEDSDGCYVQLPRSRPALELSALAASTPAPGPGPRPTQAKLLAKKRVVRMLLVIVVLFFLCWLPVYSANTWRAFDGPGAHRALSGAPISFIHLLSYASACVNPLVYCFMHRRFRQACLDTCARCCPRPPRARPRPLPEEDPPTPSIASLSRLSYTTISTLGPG
Experimental: (§1) Male Hartley guinea pig (450-600 g) or male ddY mouse (24-30 g) were used.
(1) Gastrin Receptor Antagonism
Preparation of gastric glands:
Male Hartley guinea pigs (450-600 g) were killed by bleeding and stomach was extracted from each animal immediately, from which gastric glands were prepared.
Preparation of test compounds and procedures of displacing assay
A 1M solution of a compound to be tested in DMSO is prepared and diluted with 50% DMSO to obtain a ten-fold dilution series.
The mixture is incubated for 30 min at 25° C., centrifuged at 2000 rpm for 5 min and the supernatant is removed by aspiration. To the pellet is added ice-cooled incubation buffer and mixed gently, followed by an immediate centrifugation and removal of the supernatant by aspiration. The radioactivity is counted on gamma counter. The same procedure was repeated using 50% DMSO solution or human gastrin I (final concentration, 2 μM) instead of a solution of test compound so as to obtain the control value regarding total binding or the value regarding non-specific binding, respectively. […]
(§2) specific binding of control=total binding (cpm)-non-specific binding (cpm); and specific binding of test compound=[…]-non-specific binding (cpm).

CCK-A receptor = molecular target: T2, CCK-A receptor (Mus musculus, UniProt O08786); assay: CCK-A receptor antagonism, displacement of [3H]CCK-8, pancreas crude membrane; type: binding, mouse (male ddY)
T2 construct: crude membrane specimen from mouse pancreas; from tissue; host or cells: pancreas of male ddY mice, crude membranes
T2 sequence (O08786 1-436): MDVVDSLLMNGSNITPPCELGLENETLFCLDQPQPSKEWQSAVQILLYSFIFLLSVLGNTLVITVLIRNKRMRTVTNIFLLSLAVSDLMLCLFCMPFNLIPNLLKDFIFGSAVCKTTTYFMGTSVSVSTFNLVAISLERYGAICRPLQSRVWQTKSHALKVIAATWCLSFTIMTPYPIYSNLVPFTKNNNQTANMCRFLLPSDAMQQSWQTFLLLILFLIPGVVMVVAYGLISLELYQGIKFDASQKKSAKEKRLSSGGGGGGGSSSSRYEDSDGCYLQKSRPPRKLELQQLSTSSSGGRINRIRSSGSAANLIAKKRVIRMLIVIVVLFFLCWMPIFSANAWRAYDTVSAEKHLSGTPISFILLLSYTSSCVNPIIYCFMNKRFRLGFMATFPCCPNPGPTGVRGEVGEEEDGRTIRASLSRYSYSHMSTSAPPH
Experimental: as §1
(§3) (2) CCK-A Receptor Antagonism and CCK-B Receptor Antagonism
(§4) Preparation of CCK receptor preparations
(§5) Male ddY mice (24 to 30 g) were killed by decapitation and cerebral cortex (CCK-B) and pancreas (CCK-A) were extracted immediately. Each of cerebral cortex and pancreas was mixed with 50 mM Tris-HCl buffer (pH 7.4) and homogenized with a teflon-glass homogenizer and polytron homogenizer to obtain crude membrane specimens.
(§6) Preparation of test compounds and procedures of displacing assay A 1M solution of a compound to be tested in DMSO is prepared and diluted with 50% DMSO to obtain a ten-fold dilution series.
(§7) The reaction is initiated by the addition of crude membrane specimen to solutions of different concentration each containing [^3 H]CCk-8 (final concentration, 1 nM). The mixture is incubated for 90 min at 25° C., filtered through glass filter with aspiration and washed with a cooled 50 mM Tris buffer. After the addition of Aquazol-2 cocktail the radioactivity is counted. The same procedure was repeated using 50% DMSO solution or Ceruletide (final concentration, 1 μM) instead of a solution of test compound so as to obtain the control value regarding total binding or the value regarding non-specific binding, respectively. […]
as §2

CCK-B receptor = molecular target: T3, CCK-B receptor (Mus musculus, UniProt P56481); assay: CCK-B receptor antagonism, displacement of [3H]CCK-8, cerebral cortex crude membrane; type: binding, mouse (male ddY)
T3 construct: crude membrane specimen from mouse cerebral cortex; from tissue; host or cells: cerebral cortex of male ddY mice, crude membranes
T3 sequence (P56481 1-453): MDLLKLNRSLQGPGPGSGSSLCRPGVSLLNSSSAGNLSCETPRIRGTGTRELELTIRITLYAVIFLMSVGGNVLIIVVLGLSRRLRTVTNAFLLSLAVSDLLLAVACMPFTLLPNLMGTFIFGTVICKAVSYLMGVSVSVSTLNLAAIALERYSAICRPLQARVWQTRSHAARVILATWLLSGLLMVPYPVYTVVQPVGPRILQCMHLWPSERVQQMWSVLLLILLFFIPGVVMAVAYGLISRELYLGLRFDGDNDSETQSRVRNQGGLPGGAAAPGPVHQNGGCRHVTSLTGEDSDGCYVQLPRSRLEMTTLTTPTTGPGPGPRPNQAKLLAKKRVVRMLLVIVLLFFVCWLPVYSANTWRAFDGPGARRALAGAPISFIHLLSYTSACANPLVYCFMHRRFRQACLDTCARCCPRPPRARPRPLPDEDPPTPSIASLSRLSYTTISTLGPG
Experimental: as §1, §3, §4, §5, §6, §7, §2

[1] = guinea pig gastric glands, 125I-gastrin 0.2 nM, 30 min, 25 °C, read-out: Receptor Gastrin (IC50)
[2] = mouse pancreas membrane, [3H]CCK-8 1 nM, 90 min, 25 °C, read-out: Receptor CCK-A (IC50)
[3] = mouse cerebral cortex membrane, [3H]CCK-8 1 nM, 90 min, 25 °C, read-out: Receptor CCK-B (IC50)

Row | IC50 (gastrin receptor; [1]) | IC50 (CCK-A receptor; [2]) | IC50 (CCK-B receptor; [3]) | SMILES | IC50 (gastrin receptor) | IC50 (CCK-A receptor) | IC50 (CCK-B receptor)
1 | 0.064 µM | 2.1 µM | 0.38 µM | O=C(CN1C(=O)C(NC(=O)Nc2cccc(COC(=O)NCCCC(=O)OCc3ccccc3)c2)C(=O)N(CC(=O)NC2CC2)c2ccccc21)NC1CC1 [Compound 10c, 1,5-Bis-(cyclopropylcarbamoylmethyl)-3-(N'-(3-(3-(benzoyloxycarbonyl)propylcarbamoyloxymethyl)-phenyl)ureido)-1H-1,5-benzodiazepine-2,4 (3H,5H)-dione] | – | – | –
2 | 0.006 µM | 0.8 µM | 0.038 µM | O=C(O)CCCNC(=O)OCc1cccc(NC(=O)NC2C(=O)N(CC(=O)c3ccco3)c3ccccc3N(CC(=O)c3ccco3)C2=O)c1 [Compound 11f, 1,5-Bis-(2-furylcarbonylmethyl)-3-(N'-(3-(3-(carboxy)propylcarbamoyloxymethyl)phenyl)ureido)-1H-1,5-benzodiazepine-2,4(3H,5H)-dione] | – | – | –
3 | 0.018 µM | 1.85 µM | 0.036 µM | O=C(O)CCCNC(=O)OCc1cccc(NC(=O)NC2C(=O)N(CC3CC3)c3ccccc3N(CC3CC3)C2=O)c1 [Compound 11o, 1,5-Bis-(cyclopropylmethyl)-3-(N'-(3-(3-(carboxy)propylcarbamoyloxymethyl)phenyl)ureido)-1H-1,5-benzodiazepine-2,4(3H,5H)-dione] | – | – | –

The next lines start with the molecule.

Row | SMILES | IC50 (gastrin receptor; [1]) | IC50 (CCK-A receptor; [2]) | IC50 (CCK-B receptor; [3]) | IC50 (gastrin receptor) | IC50 (CCK-A receptor) | IC50 (CCK-B receptor)
4 | Cc1cccc(NC(=O)NC2C(=O)N(CC(=O)OC(C)(C)C)c3ccccc3N(CC(=O)OC(C)(C)C)C2=O)c1 [Compound 8s, 1,5-Bis-(t-butoxycarbonylmethyl)-3-(N'-(m-tolyl)ureido)-1H-1,5-benzodiazepine-2,4(3H,5H)-dione] | 0.002 µM | 0.1 µM | 0.002 µM | – | – | –
5 | COC(=O)CCCNC(=O)OCc1cccc(NC(=O)NC2C(=O)N(CC(=O)N3CCCC3)c3ccccc3N(CC(=O)N3CCCC3)C2=O)c1 [Compound 9a, 1,5-Bis-(pyrrolidinecarbonylmethyl)-3-(N'-(3-(3-(carbomethoxy)propylcarbamoyloxymethyl)phenyl)ureido)-1H-1,5-benzodiazepine-2,4(3H,5H) -dione] | 0.008 µM | 2.1 µM | 0.13 µM | – | – | –
6 | COC(=O)CCCNC(=O)OCc1cccc(NC(=O)NC2C(=O)N(CC(=O)N3CCSC3)c3ccccc3N(CC(=O)N3CCSC3)C2=O)c1 [Compound 9b, 1,5-Bis-(thiazolidinecarbonylmethyl)-3-(N'-(3-(3-(carbomethoxy)propylcarbamoyloxymethyl)phenyl)ureido)-1H-1,5-benzodiazepine-2,4(3H,5H)-dione] | – | – | – | 0.014 µM | 0.36 µM | 0.12 µM
7 | COC(=O)CCCNC(=O)OCc1cccc(NC(=O)NC2C(=O)N(CC(=O)c3ccccc3C)c3ccccc3N(CC(=O)c3ccccc3C)C2=O)c1 [Compound 9d, 1,5-Bis-(o-methylphenacyl)-3-(N'-(3-(3-(carbomethoxy)propylcarbamoyloxymethyl)phenyl)ureido)-1H-1,5-benzodiazepine-2,4(3H,5H)-dione] | 0.006 µM | < 0.1 µM | 0.011 µM | – | – | –
8 | COC(=O)CCCNC(=O)OCc1cccc(NC(=O)NC2C(=O)N(CC(=O)c3ccco3)c3ccccc3N(CC(=O)c3ccco3)C2=O)c1 [Compound 9f, 1,5-Bis-(2-furylcarbonylmethyl)-3-(N'-(3-(3-(carbomethoxy)propylcarbamoyloxymethyl)phenyl)ureido) -1H-1,5-benzodiazepine-2,4(3H,5H)-dione] | 0.007 µM | 1.4 µM | 0.062 µM | – | – | –
9 | COC(=O)CCCNC(=O)OCc1cccc(NC(=O)NC2C(=O)N(CC(=O)c3cccs3)c3ccccc3N(CC(=O)c3cccs3)C2=O)c1 [Compound 9g] | 0.003 µM | 0.42 µM | 0.007 µM | – | – | –
10 | COC(=O)CCCNC(=O)OCc1cccc(NC(=O)NC2C(=O)N(CC(=O)C3CC3)c3ccccc3N(CC(=O)C3CC3)C2=O)c1 [Compound 9h, 1,5-Bis-(cyclopropylcarbonylmethyl)-3-(N'-(3-(3-(carbomethoxy)propylcarbamoyloxymethyl)phenyl)ureido)-1H-1,5-benzodiazepine-2,4(3H,5H)-dione] | 0.004 µM | 1.25 µM | 0.02 µM | – | – | –
11 | COC(=O)CCCNC(=O)OCc1cccc(NC(=O)NC2C(=O)N(CC(=O)C3CCCC3)c3ccccc3N(CC(=O)C3CCCC3)C2=O)c1 [Compound 9i, 1,5-Bis-(cyclopentylcarbonylmethyl)-3-(N'-(3-(3-(carbomethoxy)propylcarbamoyloxymethyl)phenyl)ureido)-1H-1,5-benzodiazepine-2,4(3H,5H)-dione] | 0.007 µM | 0.29 µM | 0.002 µM | – | – | –
12 | COC(=O)CCCNC(=O)OCc1cccc(NC(=O)NC2C(=O)N(CC3CC3)c3ccccc3N(CC3CC3)C2=O)c1 [Compound 9o, 1,5-Bis-(cyclopropylmethyl)-3-(N'-(3-(3-(carbomethoxy)propylcarbamoyloxymethyl)phenyl)ureido)-1H-1,5-benzodiazepine-2,4(3H,5H)-dione] | 0.031 µM | 3.9 µM | 0.078 µM | – | – | –
13 | CC(C)(C)OC(=O)CN1C(=O)C(NC(=O)Nc2cccc(COC(=O)NCCCC(=O)OCc3ccccc3)c2)C(=O)N(CC(=O)OC(C)(C)C)c2ccccc21 [Compound 10s, 1,5-Bis-(tert-butoxycarbonylmethyl)-3-(N'-(3-(3-(benzyloxycarbonyl)propylcarbamoyloxymethyl)phenyl)-ureido)-1H-1,5-benzodiazepine-2,4(3H,5H)-dione] | 0.007 µM | < 0.1 µM | 0.004 µM | – | – | –
14 | CCOC(=O)c1cccc(NC(=O)NC2C(=O)N(CC(=O)N3CCCC3)c3ccccc3N(CC(=O)N3CCCC3)C2=O)c1 [Compound 18-i, 1,5-Bis-(pyrrolidinocarbonylmethyl)-3-(N'-(m-(carboethoxy)phenyl)ureido)-1H-1,5-benzodiazepine-2,4(3H,5H)-dione] | 0.025 µM | 3.2 µM | 0.44 µM | – | – | –
